The structures appear in SMILES notation. Where only a bound is given, the exact number is not on record here.

The first test relates to HCV 1b_Huh-Luc/Neo-ET cell line persistently expressing a bicistronic genotype 1b replicon in Huh 7 cells. The test is described as follows: HCV replicon assay (luciferase readout, 72 h). The settings on record: Hepatitis C virus, Huh-7, 72 h, read-out: Inhibition of HCV genotype 1b. The format is cell-based, HCV genotype 1b. Put shortly: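 EC50 values come from a four-parameter fit of luciferase signal as % of untreated control, repeated across several determinations. The signal is from the HCV 1b_Huh-Luc/Neo-ET replicon line, dosed in triplicate one day post-plating and incubated 72 h before Bright-Glo readout.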
For orientation: In antiviral work, replicon cells carry a viral genome segment that copies itself.
`COC(=O)N[C@H](C(=O)N1CCC[C@H]1c1ncc(-c2ccc(C#Cc3ccc(-c4cnc([C@@H]5CCCN5C(=O)[C@H](C(C)C)N(C)C)[nH]4)cc3)cc2)[nH]1)C(C)C` [Compound 953]: the EC50 was 1 to 9.9 nM.

For `COC(=O)N[C@@H](C(=O)N[C@@H](C)c1ncc(-c2ccc(C#Cc3ccc(-c4cnc([C@@H]5CCCN5C(=O)[C@H](NC(=O)OC)C(C)C)[nH]4)cc3)cc2)[nH]1)C(C)C` [Compound 290], the EC50 is over 1000 nM.

On to `COC(=O)N[C@@H](C(=O)N1CCC[C@H]1c1ncc(-c2ccc(C#Cc3ccc(-c4cnc([C@@H]5CCCN5C(=O)c5cccnc5)[nH]4)cc3)cc2)[nH]1)c1ccccc1` [Compound 183], for which the EC50 is under 1 nM.

Regarding `COC(=O)N[C@@H](C(=O)N1CCC[C@H]1c1ncc(C#Cc2ccc(C#Cc3cnc([C@@H]4CCCN4C(=O)[C@@H](c4ccccc4)N4CCCC4)[nH]3)cc2)[nH]1)c1ccccc1` [Compound 311], the EC50 is under 1 nM.

As to `O=C(N[C@@H](C(=O)N1CCC[C@H]1c1ncc(C#Cc2ccc(-c3ccc(-c4cnc([C@@H]5CCCN5C(=O)[C@H](NC(=O)C5CC5)c5ccccc5)[nH]4)cc3)cc2)[nH]1)c1ccccc1)C1CC1` [Compound 760], the EC50 is under 1 nM.

Turning to `COC(=O)N[C@@H](C(=O)N1CCC[C@H]1c1ncc(-c2ccc(C#Cc3ccc(-c4cnc([C@@H]5CCCN5C(=O)[C@H](C)c5ccccc5)[nH]4)cc3)cc2)[nH]1)c1ccccc1` [Compound 256], the EC50 is under 1 nM. `COC(=O)N[C@@H](CC(C)C)C(=O)N1CCC[C@H]1c1ncc(-c2ccc(C#Cc3ccc(-c4cnc([C@@H]5CCCN5C(=O)[C@H](CC(C)C)NC(=O)OC)[nH]4)cc3)cc2)[nH]1` [Compound 961]: the EC50 was under 1 nM. Take `COC(=O)N[C@H](C(=O)N1CCC[C@H]1c1ncc(-c2ccc(C#Cc3ccc4nc([C@@H]5CCCN5C(=O)[C@@H](NC(=O)OC)[C@@H](C)O)[nH]c4c3)cc2)[nH]1)[C@@H](C)O` [Compound 863]: the EC50 was under 1 nM. Same read-out and setting: under `COC(=O)N[C@H](C(=O)N1CCSC[C@H]1c1ncc(-c2ccc(C#Cc3ccc4nc([C@@H]5CCCN5C(=O)[C@@H](NC(=O)OC)C(C)C)[nH]c4c3)cc2)[nH]1)C(C)C` [Compound 1062] stands under 1 nM; under `COC(=O)N[C@@H](C(=O)N1CCC[C@H]1c1ncc(-c2ccc(C#Cc3ccc(-c4cnc([C@@H]5CCCN5C(=O)[C@H](NC(=O)N5CCC[C@H](O)C5)c5ccccc5)[nH]4)cc3)cc2)[nH]1)c1ccccc1` [Compound 263], under 1 nM. As to `COC(=O)N[C@H](C(=O)N1CCC[C@H]1c1ncc(-c2ccc(C#Cc3ccc4nc([C@@H]5CCCN5C(=O)[C@@H](NC(=O)OC)C5CCOCC5)[nH]c4c3)cc2F)[nH]1)C1CCOCC1` [Compound 1070], the EC50 was under 1 nM. Consider `O=C(N[C@@H](C(=O)N1CCC[C@H]1c1cc(-c2ccc(C#Cc3ccc(-c4cnc([C@@H]5CCCN5C(=O)[C@H](NC(=O)N5CCOCC5)c5ccccc5)[nH]4)cc3)cc2)n[nH]1)c1ccccc1)N1CCOCC1` [Compound 220], for which the EC50 is under 1 nM. `COC(=O)N[C@@H](C(=O)N1CCC[C@H]1c1ncc(-c2ccc(C#Cc3ccc(-c4cnc([C@@H]5CCCN5C(=O)[C@@H]5CCCO5)[nH]4)cc3)cc2)[nH]1)c1ccccc1` [Compound 186]: the EC50 was under 1 nM. As to `COC(=O)N[C@@H](C(=O)N1CCC[C@H]1c1ncc(C#Cc2ccc(-c3ccc(-c4cnc([C@@H]5CCCN5C(=O)[C@H](NC(=O)C5CC5)c5ccccc5)[nH]4)cc3)cc2)[nH]1)c1ccccc1` [Compound 754], the EC50 was under 1 nM. Still for that read-out and setting: under `COC(=O)N[C@@H](C(=O)N1CCC[C@H]1c1ncc(C#Cc2ccc3nc([C@@H]4CCCN4C(=O)[C@H](NC(=O)OC)c4ccccc4)[nH]c3c2)[nH]1)c1ccccc1` [Compound 700] stands under 1 nM; under `CC[C@H](NC(=O)OC)C(=O)N1CCC[C@H]1c1ncc(-c2ccc(C#Cc3ccc(-c4cnc([C@@H]5CCCN5C(=O)[C@H](CC)NC(=O)OC)[nH]4)cc3)cc2)[nH]1` [Compound 960], under 1 nM.

Consider `C(#Cc1ccc2nc([C@@H]3CCCN3Cc3ccccc3)[nH]c2c1)c1ccc(-c2cnc([C@@H]3CCCN3Cc3ccccc3)[nH]2)cc1` [Compound 1052], for which the EC50 was over 1000 nM. On to `COC(=O)N[C@H](C(=O)N1CCC[C@H]1c1ncc(-c2ccc(C#Cc3ccc4c(c3)CCCc3nc([C@@H]5CCCN5C(=O)[C@@H](NC(=O)OC)C(C)C)[nH]c3-4)cc2)[nH]1)C(C)C` [Compound 1096], for which the EC50 was under 1 nM. In the case of `O=C(N[C@@H](C(=O)N1CCC[C@H]1c1ncc(-c2ccc(C#Cc3ccc(-c4cnc([C@@H]5CCCN5C(=O)[C@@H](c5ccccc5)N5CCCCC5)[nH]4)cc3)cc2)[nH]1)c1ccccc1)C1CC1` [Compound 208], the EC50 is under 1 nM. Same read-out and setting: under `COC(=O)N[C@H](C(=O)N1CCC[C@H]1c1ncc(-c2ccc(C#Cc3ccc4nc([C@@H]5CCCN5C(=O)[C@@H](NC(=O)OC)C(C)(C)C)[nH]c4c3)cc2)[nH]1)C(C)(C)C` [Compound 1041] stands under 1 nM. With `COC[C@@H]1CCCN1C(=O)N[C@@H](C(=O)N1CCC[C@H]1c1ncc(-c2ccc(C#Cc3ccc(-c4cnc([C@@H]5CCCN5C(=O)[C@H](NC(=O)OC)c5ccccc5)[nH]4)cc3)cc2)[nH]1)c1ccccc1` [Compound 260], the EC50 was under 1 nM. In the case of `COC(=O)N[C@@H](C(=O)N[C@@H](C)c1ncc(-c2ccc(C#Cc3ccc(-c4cnc([C@H](C)NC(=O)[C@H](NC(=O)OC)C(C)C)[nH]4)cc3)cc2)[nH]1)C(C)C` [Compound 950], the EC50 was under 1 nM. With `C=CC[C@H](NC(=O)OC)C(=O)N1CCC[C@H]1c1nc2ccc(C#Cc3ccc4c(c3)CCc3nc([C@@H]5CCCN5C(=O)[C@@H](NC(=O)OC)C(C)C)[nH]c3-4)cc2[nH]1` [Compound 1105], the EC50 was under 1 nM. Regarding `CN(C)[C@@H](C(=O)N1CCC[C@H]1c1ncc(-c2ccc(C#Cc3cnc([C@@H]4CCCN4C(=O)[C@H](NC(=O)C4CC4)c4ccccc4)[nH]3)cc2)[nH]1)c1ccccc1` [Compound 131], the EC50 is under 1 nM. Turning to `COC(=O)N[C@H](C(=O)N1CCC[C@H]1c1nc2c([nH]1)-c1ccc(C#Cc3ccc(-c4cnc([C@@H]5CCCN5C(=O)[C@H](NC(=O)OC)c5ccccc5)[nH]4)cc3F)cc1CC2)C(C)C` [Compound 1098], the EC50 was under 1 nM. Consider `COC(=O)N[C@@H](C(=O)N1CCC[C@H]1c1ncc(C#Cc2ccc(C#Cc3cnc([C@@H]4CCCN4C(=O)[C@@H](c4ccccc4)N4CCOCC4)[nH]3)cc2)[nH]1)c1ccccc1` [Compound 313], for which the EC50 is under 1 nM. In the case of `COC(=O)N[C@H](C(=O)N1CCC[C@H]1c1nc2ccc(C#Cc3ccc(-c4cnc([C@@H]5CCCN5C(=O)[C@H](c5ccccc5)N(C)C)[nH]4)cc3)cc2[nH]1)C(C)C` [Compound 864], the EC50 is under 1 nM. Consider `CCN(CC)[C@@H](C(=O)N1CCC[C@H]1c1ncc(-c2ccc(C#Cc3ccc(-c4cnc([C@@H]5CCCN5C(=O)[C@@H](c5ccccc5)N(CC)CC)[nH]4)cc3)cc2)[nH]1)c1ccccc1` [Compound 173], for which the EC50 was under 1 nM. As to `COC(=O)N[C@H](C(=O)N1CCC[C@H]1c1nc2ccc3cc(C#Cc4ccc(-c5cnc([C@@H]6CCCN6C(=O)[C@H](NC(=O)OC)c6ccccc6)[nH]5)cc4F)ccc3c2[nH]1)C(C)C` [Compound 1100], the EC50 is under 1 nM. Still for that read-out and setting: under `COC(=O)N[C@H](C(=O)N1CCC[C@H]1c1nc2c([nH]1)-c1ccc(C#Cc3ccc(-c4cnc([C@@H]5CCCN5C(=O)[C@@H](NC(=O)OC)C5CCOCC5)[nH]4)cc3)cc1CCC2)C(C)C` [Compound 1097] stands under 1 nM. In the case of `COC(=O)N[C@@H](Cc1c[nH]c2ccccc12)C(=O)N1CCC[C@H]1c1ncc(-c2ccc(C#Cc3ccc4nc([C@@H]5CCCN5C(=O)[C@H](Cc5c[nH]c6ccccc56)NC(=O)OC)[nH]c4c3)cc2)[nH]1` [Compound 1057], the EC50 was under 1 nM. `C[C@H](NC(=O)[C@@H]1CCCN1C(=O)[C@H](NC(=O)C1CC1)c1ccccc1)c1ccc(C#Cc2ccc(-c3cnc([C@@H]4CCCN4C(=O)[C@H](NC(=O)C4CC4)c4ccccc4)[nH]3)cc2)cc1` [Compound 191]: the EC50 was under 1 nM. For the molecule `O=C(N[C@@H](C(=O)N1CCC[C@H]1c1ncc(C#Cc2ccc(-c3ccc(-c4cnc([C@@H]5CCCN5C(=O)[C@H](NC(=O)N5CC[C@H](O)C5)c5ccccc5)[nH]4)cc3)cc2)[nH]1)c1ccccc1)N1CC[C@H](O)C1` [Compound 762], the EC50 is under 1 nM. As for `COC(=O)N[C@H](C(=O)N1CCC[C@H]1c1nc2ccc(C#Cc3ccc(-c4cnc([C@@H]5CCCN5C(=O)[C@@H](C(C)C)N(C)C)[nH]4)cc3)cc2[nH]1)C(C)C` [Compound 865], the EC50 was under 1 nM. `COC(=O)N[C@@H](C(=O)N1CCC[C@H]1c1ncc(-c2ccc(C#Cc3ccc(-c4cnc([C@@H]5CCCN5C(=O)N5CCOCC5)[nH]4)cc3)cc2)[nH]1)c1ccccc1` [Compound 198]: the EC50 is under 1 nM. Regarding `CC(C)[C@@H](NC(=O)OC(C)(C)C)C(=O)N1CCC[C@H]1C(=O)Nc1ccc(C#Cc2cnc([C@@H]3CCCN3C(=O)[C@H](NC(=O)OC(C)(C)C)C(C)C)[nH]2)cc1` [Compound 114], the EC50 is 10 to 999 nM.

Staying with this test, now noted: Hepatitis C virus, Huh-7, read-out: Inhibition of HCV genotype 1b.
Consider `CC[C@H](C)[C@H](NC(=O)OC)C(=O)N1CCC[C@H]1c1nc(C)c(C#Cc2ccc3cc(-c4cnc([C@@H]5CCCN5C(=O)[C@@H](NC(=O)OC)[C@@H](C)OC)[nH]4)ccc3c2)[nH]1` [Compound 1265], for which the EC50 was under 1 nM. In the case of `COC(=O)N[C@H](C(=O)N1CCC[C@H]1c1nc2ccc3cc(C#Cc4ccc5nc([C@@H]6CCCN6C(=O)[C@H](NC(=O)OC)c6ccccc6)[nH]c5c4)ccc3c2[nH]1)C(C)C` [Compound 1275], the EC50 was under 1 nM. Take `COC(=O)N[C@H](C(=O)N1CCC[C@H]1c1nc(C(F)(F)F)c(C#Cc2ccc3cc(-c4cnc([C@@H]5CCCN5C(=O)[C@@H](NC(=O)OC)[C@@H](C)OC)[nH]4)ccc3c2)[nH]1)C(C)C` [Compound 1261]: the EC50 was under 1 nM.
